Assay results taken from the NIST ThermoML archive (doi:10.1021/acs.jced.9b00846).

Conditions: Liquid, Vibrating tube method

CCC(C)CC [3-methylpentane]
Conditions	mass density [kg/m3]
283.15 K, 96 kPa	673.7
283.15 K, 4984 kPa	678.4
283.15 K, 9983 kPa	682.9
283.15 K, 14976 kPa	687.2
283.15 K, 20022 kPa	691.2
283.15 K, 25054 kPa	695
283.15 K, 29951 kPa	698.6
283.15 K, 35044 kPa	702.1
283.15 K, 40019 kPa	705.4
283.15 K, 45032 kPa	708.6
283.15 K, 50012 kPa	711.7
283.15 K, 54940 kPa	714.6
283.15 K, 59937 kPa	717.5
283.15 K, 64969 kPa	720.3
288.15 K, 123 kPa	669.3
288.15 K, 4981 kPa	674.1
288.15 K, 10014 kPa	678.9
288.15 K, 14991 kPa	683.2
288.15 K, 19942 kPa	687.3
288.15 K, 25033 kPa	691.3
288.15 K, 29989 kPa	695
288.15 K, 35037 kPa	698.6
288.15 K, 39987 kPa	701.9
288.15 K, 45029 kPa	705.2
288.15 K, 50061 kPa	708.4
288.15 K, 54941 kPa	711.3
288.15 K, 59951 kPa	714.3
288.15 K, 65035 kPa	717.1
293.15 K, 98 kPa	664.7
293.15 K, 4913 kPa	669.7
293.15 K, 9979 kPa	674.6
293.15 K, 14916 kPa	679.1
293.15 K, 19985 kPa	683.5
293.15 K, 24964 kPa	687.5
293.15 K, 30011 kPa	691.3
293.15 K, 34951 kPa	694.9
293.15 K, 40003 kPa	698.4
293.15 K, 45015 kPa	701.8
293.15 K, 49957 kPa	705
293.15 K, 54949 kPa	708.1
293.15 K, 60008 kPa	711.1
293.15 K, 65001 kPa	714
298.15 K, 123 kPa	660.1
298.15 K, 4936 kPa	665.3
298.15 K, 9999 kPa	670.4
298.15 K, 15031 kPa	675.1
298.15 K, 20036 kPa	679.5
298.15 K, 25016 kPa	683.7
298.15 K, 29992 kPa	687.6
298.15 K, 34973 kPa	691.3
298.15 K, 40043 kPa	694.9
298.15 K, 45008 kPa	698.3
298.15 K, 49987 kPa	701.6
298.15 K, 54938 kPa	704.8
298.15 K, 59982 kPa	707.8
298.15 K, 65001 kPa	710.8
303.15 K, 106 kPa	655.4
303.15 K, 4970 kPa	660.9
303.15 K, 9996 kPa	666.1
303.15 K, 15043 kPa	671.1
303.15 K, 20006 kPa	675.6
303.15 K, 25024 kPa	679.9
303.15 K, 29956 kPa	683.9
303.15 K, 34990 kPa	687.7
303.15 K, 39963 kPa	691.4
303.15 K, 44991 kPa	694.9
303.15 K, 49940 kPa	698.2
303.15 K, 54932 kPa	701.5
303.15 K, 59961 kPa	704.6
303.15 K, 65012 kPa	707.7
308.15 K, 109 kPa	650.6
308.15 K, 4967 kPa	656.3
308.15 K, 10001 kPa	661.8
308.15 K, 14988 kPa	666.8
308.15 K, 19945 kPa	671.5
308.15 K, 25037 kPa	676
308.15 K, 29968 kPa	680.1
308.15 K, 35020 kPa	684
308.15 K, 39963 kPa	687.8
308.15 K, 44985 kPa	691.4
308.15 K, 49992 kPa	694.8
308.15 K, 54921 kPa	698.1
308.15 K, 60008 kPa	701.4
308.15 K, 64999 kPa	704.4
313.15 K, 117 kPa	645.9
313.15 K, 4981 kPa	651.9
313.15 K, 9993 kPa	657.5
313.15 K, 15145 kPa	662.9
313.15 K, 20027 kPa	667.6
313.15 K, 25088 kPa	672.2
313.15 K, 30012 kPa	676.4
313.15 K, 35003 kPa	680.4
313.15 K, 40042 kPa	684.3
313.15 K, 45054 kPa	688
313.15 K, 49996 kPa	691.5
313.15 K, 54926 kPa	694.8
313.15 K, 60053 kPa	698.2
313.15 K, 65063 kPa	701.3
318.15 K, 107 kPa	641.1
318.15 K, 4955 kPa	647.4
318.15 K, 9991 kPa	653.3
318.15 K, 15039 kPa	658.8
318.15 K, 20021 kPa	663.7
318.15 K, 25060 kPa	668.4
318.15 K, 29991 kPa	672.8
318.15 K, 34997 kPa	676.9
318.15 K, 40044 kPa	680.9
318.15 K, 44936 kPa	684.6
318.15 K, 49998 kPa	688.3
318.15 K, 55010 kPa	691.7
318.15 K, 59996 kPa	695.1
318.15 K, 65008 kPa	698.3
323.15 K, 106 kPa	636.3
323.15 K, 4980 kPa	642.9
323.15 K, 9966 kPa	649
